System: 379773-124-R-J2-PDC spheroid viability
Assay: Anticancer human tumor 379773-124-R-J2-PDC patient-derived endometrial carcinoma cell line growth inhibition [POLQ]
Conditions: spheroids with HUVEC and MSC; for IC50: curve of first compound; for viability, T/C: stronger effect = lower value; active = viability on the fitted dose curve at most 10% of control; inactive = the rest
Summary of the method: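 Patient-derived tumour cells were co-cultured with HUVEC and mesenchymal stem cells as multicellular spheroids at 37 °C. They were treated with POLQ inhibitors (novobiocin, ART-558, RP6685) alone or combined with other agents. Top concentrations were at or near clinical Cmax (otherwise 10 microM; SN-38 at 1 microM), decreasing in half-log steps.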

[1] = second compound 0.0316 µM, first compound 0.0316 µM
[2] = second compound 0.0316 µM, first compound 0.1 µM
[3] = second compound 0.0316 µM, first compound 0.316 µM
[4] = second compound 0.0316 µM, first compound 1 µM
[5] = second compound 0.0316 µM, first compound 3.16 µM
[6] = second compound 0.0316 µM, first compound 10 µM
[7] = second compound 0.1 µM, first compound 0.0316 µM
[8] = second compound 0.1 µM, first compound 0.1 µM
[9] = second compound 0.1 µM, first compound 0.316 µM
[10] = second compound 0.1 µM, first compound 1 µM
[11] = second compound 0.1 µM, first compound 3.16 µM
[12] = second compound 0.1 µM, first compound 10 µM
[13] = second compound 0.316 µM, first compound 0.0316 µM
[14] = second compound 0.316 µM, first compound 0.1 µM
[15] = second compound 0.316 µM, first compound 0.316 µM
[16] = second compound 0.316 µM, first compound 1 µM
[17] = second compound 0.316 µM, first compound 3.16 µM
[18] = second compound 0.316 µM, first compound 10 µM
[19] = second compound 1 µM, first compound 0.0316 µM
[20] = second compound 1 µM, first compound 0.1 µM
[21] = second compound 1 µM, first compound 0.316 µM
[22] = second compound 1 µM, first compound 1 µM
[23] = second compound 1 µM, first compound 3.16 µM
[24] = second compound 1 µM, first compound 10 µM
[25] = second compound 3.16 µM, first compound 0.0316 µM
[26] = second compound 3.16 µM, first compound 0.1 µM
[27] = second compound 3.16 µM, first compound 0.316 µM
[28] = second compound 3.16 µM, first compound 1 µM
[29] = second compound 3.16 µM, first compound 3.16 µM
[30] = second compound 3.16 µM, first compound 10 µM
[31] = second compound 10 µM, first compound 0.0316 µM
[32] = second compound 10 µM, first compound 0.1 µM
[33] = second compound 10 µM, first compound 0.316 µM
[34] = second compound 10 µM, first compound 1 µM
[35] = second compound 10 µM, first compound 3.16 µM
[36] = second compound 10 µM, first compound 10 µM
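Note: spheroids exposed to drugs for seven days before readout.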
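Throughout, for viability, T/C: percent viability relative to DMSO vehicle control taken as 100%.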

COc1cc(C2c3cc4c(cc3C(OC3OC5COC(C)OC5C(O)C3O)C3COC(=O)C23)OCO4)cc(OC)c1O (stereo unspecified) + Cc1cccc(N(C)C(=O)C2C(O)CCN2c2nc(C)cc(C(F)(F)F)c2C#N)c1
1190 nM: IC50 (second compound 0.0316 µM) | IC50 (second compound 1 µM)
1230 nM: IC50 (second compound 0.1 µM)
1040 nM: IC50 (second compound 3.16 µM)
577 nM: IC50 (second compound 10 µM)
914 nM: IC50 (second compound 0.316 µM)
active: viability, T/C [6] 8.66% | viability, T/C [12] 9.6% | viability, T/C [18] 9.6% | viability, T/C [36] 11.2%
inactive: viability, T/C [1] 91.2% | viability, T/C [2] 71.9% | viability, T/C [3] 82.6% | viability, T/C [4] 56.5% | viability, T/C [5] 12.7% | viability, T/C [7] 82.8% | viability, T/C [8] 83.6% | viability, T/C [9] 83.8% | viability, T/C [10] 58% | viability, T/C [11] 12.7% | viability, T/C [13] 86% | viability, T/C [14] 82% | viability, T/C [15] 68.4% | viability, T/C [16] 52.9% | viability, T/C [17] 12% | viability, T/C [19] 74.4% | viability, T/C [20] 84.9% | viability, T/C [21] 71.1% | viability, T/C [22] 57.1% | viability, T/C [23] 9.91% | viability, T/C [24] 11.1% | viability, T/C [25] 73.3% | viability, T/C [26] 80.9% | viability, T/C [27] 77.9% | viability, T/C [28] 51.4% | viability, T/C [29] 11% | viability, T/C [30] 13.6% | viability, T/C [31] 77.6% | viability, T/C [32] 75% | viability, T/C [33] 66.1% | viability, T/C [34] 35.5% | viability, T/C [35] 11.9%

CC[C@@]1(O)C(=O)OCc2c1cc1n(c2=O)Cc2cc3c(CN(C)C)c(O)ccc3nc2-1 + Cc1cccc(N(C)C(=O)C2C(O)CCN2c2nc(C)cc(C(F)(F)F)c2C#N)c1
22.2 nM: IC50 (second compound 0.316 µM)
21.1 nM: IC50 (second compound 0.1 µM)
24.3 nM: IC50 (second compound 0.0316 µM)
20.2 nM: IC50 (second compound 1 µM)
inactive: viability, T/C (second compound 0.0316 µM, first compound 0.000316 µM) 90.3% | viability, T/C (second compound 0.0316 µM, first compound 0.001 µM) 89.1% | viability, T/C (second compound 0.0316 µM, first compound 0.00316 µM) 77.8% | viability, T/C (second compound 0.0316 µM, first compound 0.01 µM) 85.4% | viability, T/C [1] 39.6% | viability, T/C [2] 14.2% | viability, T/C (second compound 0.1 µM, first compound 0.000316 µM) 89.2% | viability, T/C (second compound 0.1 µM, first compound 0.001 µM) 88.6% | viability, T/C (second compound 0.1 µM, first compound 0.00316 µM) 84.1% | viability, T/C (second compound 0.1 µM, first compound 0.01 µM) 81.9% | viability, T/C [7] 32.9% | viability, T/C [8] 14% | viability, T/C (second compound 0.316 µM, first compound 0.000316 µM) 87.3% | viability, T/C (second compound 0.316 µM, first compound 0.001 µM) 77.5% | viability, T/C (second compound 0.316 µM, first compound 0.00316 µM) 85.4% | viability, T/C (second compound 0.316 µM, first compound 0.01 µM) 85.7% | viability, T/C [13] 34.8% | viability, T/C [14] 13.8% | viability, T/C (second compound 1 µM, first compound 0.000316 µM) 86.6% | viability, T/C (second compound 1 µM, first compound 0.001 µM) 83.3% | viability, T/C (second compound 1 µM, first compound 0.00316 µM) 95.1% | viability, T/C (second compound 1 µM, first compound 0.01 µM) 86.8% | viability, T/C [19] 26.7% | viability, T/C [20] 16% | viability, T/C (second compound 3.16 µM, first compound 0.000316 µM) 84.9% | viability, T/C (second compound 3.16 µM, first compound 0.001 µM) 87.7% | viability, T/C (second compound 3.16 µM, first compound 0.00316 µM) 93.3% | viability, T/C (second compound 3.16 µM, first compound 0.01 µM) 87% | viability, T/C [25] 23% | viability, T/C [26] 17.2% | viability, T/C (second compound 10 µM, first compound 0.000316 µM) 97.7% | viability, T/C (second compound 10 µM, first compound 0.001 µM) 95% | viability, T/C (second compound 10 µM, first compound 0.00316 µM) 86.4% | viability, T/C (second compound 10 µM, first compound 0.01 µM) 70.6% | viability, T/C [31] 22.1% | viability, T/C [32] 17.8%
16.3 nM: IC50 (second compound 10 µM)
19.5 nM: IC50 (second compound 3.16 µM)

CC1COCCN1c1cc(-c2ccnn2C)c2ccnc(-c3ccn[nH]3)c2n1 (stereo unspecified) + Cc1cccc(N(C)C(=O)C2C(O)CCN2c2nc(C)cc(C(F)(F)F)c2C#N)c1
96.3 nM: IC50 (second compound 10 µM)
84.7 nM: IC50 (second compound 0.316 µM)
102 nM: IC50 (second compound 0.1 µM) | IC50 (second compound 3.16 µM)
74.2 nM: IC50 (second compound 1 µM)
inactive: viability, T/C [1] 81.4% | viability, T/C [2] 49.9% | viability, T/C [3] 12.2% | viability, T/C [7] 83.7% | viability, T/C [8] 50.7% | viability, T/C [9] 16.9% | viability, T/C [13] 79.4% | viability, T/C [14] 45.1% | viability, T/C [15] 10.8% | viability, T/C [19] 76.5% | viability, T/C [20] 40.7% | viability, T/C [21] 13.5% | viability, T/C [25] 76.9% | viability, T/C [26] 50.7% | viability, T/C [27] 14% | viability, T/C [31] 70.5% | viability, T/C [32] 49.3% | viability, T/C [33] 14%
99.4 nM: IC50 (second compound 0.0316 µM)
active: viability, T/C [4] 10.4% | viability, T/C [5] 9.61% | viability, T/C [6] 5.75% | viability, T/C [10] 10.2% | viability, T/C [11] 8.42% | viability, T/C [12] 6.47% | viability, T/C [16] 7.57% | viability, T/C [17] 9.57% | viability, T/C [18] 7.53% | viability, T/C [22] 8.7% | viability, T/C [23] 8.89% | viability, T/C [24] 6.67% | viability, T/C [28] 9.29% | viability, T/C [29] 8.28% | viability, T/C [30] 6.05% | viability, T/C [34] 9.57% | viability, T/C [35] 9.04% | viability, T/C [36] 5.97%
